From patent publication US20100093862A1, “POTENTIATION OF CELLULAR IMMUNITY USING HISTONE DEACETYLASE (HDAC) INHIBITORS” (Sapporo Medical Univeristy and Japan Science and Technology …, priority 2006, published 2010)

Key:
MCF-7 cells [1] = experiment: Western blot of intracellular B2M, HLA class I heavy chain and actin, MCF-7 cells; type: cell-based, human; settings: TSA 100 nM, 24 hours
Procedure: (§1) (1) Using the same cells as those in the example 1, MCF-7 cells and HMC-1 cells were cultured in the presence of TSA, a HDAC inhibitor, (100 nM) for 24 hours respectively, followed by harvesting them. (2) 1×10^6 cells are lysed in […] cell lysate (RIPA buffer) and a soluble fraction is harvested as a lysate. SDS sample buffer was added to the lysate. (3) The protein samples were loaded on 7.5% SDS polyacrylamide gel and electrophoresed. (4) The proteins in the gel were transferred on a PVDF membrane (Millipore). (5) The transferred membrane was immersed in 5% skim milk in PBS and blocked for about one hour. (6) The transferred membrane was immersed in a primary antibody (anti-pan-HLA class I heavy chain antibody EMR8-5 (Hokudo, Sapporo), or anti-B2M antibody EMRB6 (Hokudo, Sapporo), or anti-actin antibody (DAKO), and incubated for one hour at room temperature. (7) The transferred membrane was washed with a lavage PBS-T (0.05% Tween 20/PBS, pH7.4) three times. (8) The transferred membrane was immersed in a secondary antibody peroxidase-labeled anti-mouse IgG antibody (KPL, USA) and incubated for one hour at room temperature. (9) The transferred membrane was washed with a lavage PBS-T (0.05% Tween 20/PBS, pH7.4) three times. […] (11) Luminescent signals were detected by exposure to X ray film.

class I and II HDAC = settings: Non-patent documents 5 and 6; cited from earlier work
HMC-1 cells [2] = experiment: Western blot of intracellular B2M, HLA class I heavy chain and actin, HMC-1 cells; type: cell-based, human; settings: TSA 100 nM, 24 hours
Procedure: as §1

HMC-1 cells [3] = experiment: Flow cytometry of cell surface MHC class I antigen (W6/32 antibody), HMC-1 cells; type: cell-based, human; settings: vs non-treated
Procedure: (§2) Using the same cells as those in the examples 1 and 2, MCF-7 cells and HMC-1 cells were cultured for 24 hours in the presence of HDAC inhibitor TSA (100 nM) or for 48 hours in the presence of HDAC inhibitor VPA (4 mM), respectively, and the level of MHC class I antigen expressing on the cell surface was analyzed by a flow cytometer (Becton Dickinson).
(§3) (1) 1×10^6 cells were floated in […] PBS buffer, added a primary antibody (an antipan-HLA class I antibody W6/32 (Barnstable, C. J., Bodmer, W. J., Brown, G., Galfre, G., Milstein, C., Williams, A. F., and Zeigler, A. (1978) Cell 14, 9-20)) and incubated for 40 minutes at 4° C. (2) The cells were washed twice with PBS. (3) To the suspended cell was added a secondary antibody (FITC-labeled anti-mouse IgG antibody (IPL, USA)) and incubated for 40 minutes at 4° C. (4) The cells were washed twice with PBS, floated in PBS added with 1% formalin followed by analyzing FITC level of the cell surface by a flow cytometer.

MCF-7 cells [4] = experiment: Chromatin immunoprecipitation with anti-acetylated histone H3 antibody and PCR of B2M gene, MCF-7 cells; type: cell-based, human; settings: 100 nM TSA, 24 hours
Procedure: (§4) Human breast cancer cell lines, that is, MCF-7 cells and HMC-1 cells were used to culture in the presence of 100 nM TSA (Sigma, USA) for 24 hours or 4 mM VPA (Sigma, USA) for 48 hours, respectively followed by extracting chromatin from the cells according to the manufacturer's instructions (Upstate Inc., USA) and immunoprecipitating the chromatin using anti-acetylated histone H3 antibody (Upstate Inc., USA) (see Assam El-Osta, et al. 2002. MOLECULAR AND CELLULAR BIOLOGY 22(6). p. 1844-1857). The genes binding to the acetylated histones were amplified by using PCR with the B2M gene-specific primers ([…] and […]), electrophoresed on 1% agarose gel followed by detecting with a transilluminator in the presence of ethidium bromide.

MCF-7 cells [5] = experiment: Flow cytometry of cell surface MHC class I antigen (W6/32 antibody), MCF-7 cells; type: cell-based, human; settings: TSA 100 nM, 24 hours, vs non-treated
Procedure: as §2, §3

HMC-1 cells [6] = experiment: Chromatin immunoprecipitation with anti-acetylated histone H3 antibody and PCR of B2M gene, HMC-1 cells; type: cell-based, human; settings: 4 mM VPA, 48 hours
Procedure: as §4

[7] = system: Measles virus persistent infection B cells (Raji-ZH cells); experiment: Flow cytometry of cell surface HLA class I, measles virus persistent infection B cells; type: cell-based; settings: 4 mM valproic acid, 48 hours
Procedure: (§5) Measles virus persistent infection B cells (Raji-ZH cells) were cultured in 4 mM valproic acid-added culture medium (RPMI1640) or non additive culture medium for 48 hours, and reacted with an anti-pan-HLA class I antibody, W6/32 antibody and with FITC-labeled anti-mouse IgG antibody for 40 minutes respectively, and the cells were fixed in 0.1% formalin/PBS. The fluorescence intensities were measured by flow cytometer (FACScan, Beckton Dickinson).

[8] = system: Papilloma virus persistent infection cells (HeLa cells); experiment: Flow cytometry of cell surface HLA class I, papilloma virus persistent infection cells; type: cell-based; settings: 4 mM valproic acid, 48 hours
Procedure: as §5, with “Papilloma” for “Measles”, “infection” for “infection B”, “(HeLa” for “(Raji-ZH”, “(FACS can,” for “(FACScan,”

[9] = system: HIV infection T cells (clone 8E5); experiment: Flow cytometry of cell surface HLA class I, HIV infection T cells; type: cell-based; settings: HIV infection T cells (8E5), 4 mM valproic acid, 48 hours
Procedure: HIV infection T cells (clone 8E5, purchased from ATCC) were cultured in 4 mM valproic acid-added culture medium (RPMI1640) or non additive culture medium for 48 hours, and reacted with an anti-pan-HLA class I antibody, W6/32 antibody and with FITC-labeled anti-mouse IgG antibody for 40 minutes respectively, and the cells were fixed in 0.1% formalin/PBS. The fluorescence intensities were measured by flow cytometer (FACScan, Beckton Dickinson).

[10] = system: EB virus persistent infection B cells (LG2EBV cells); experiment: Flow cytometry of cell surface HLA class I, EB virus persistent infection B cells; type: cell-based; settings: 4 mM valproic acid, 48 hours
Procedure: as §5, with “EB” for “Measles”, “(LG2EBV” for “(Raji-ZH”

[11] = system: Mumps virus persistent infection B cells (Akata-MP1 cells); experiment: Flow cytometry of cell surface HLA class I, mumps virus persistent infection B cells; type: cell-based; settings: 4 mM valproic acid, 48 hours
Procedure: as §5, with “Mumps” for “Measles”, “(Akata-MP1” for “(Raji-ZH”

[12] = system: human breast cancer cell line MCF7 cells transplanted into SCID mice; experiment: Immunostaining of MCF7 tumor transplanted into SCID mice after oral VPA; type: in vivo; settings: SCID mouse, water containing 0.4% VPA for 10 days, vs control
Procedure: A human breast cancer cell line MCF7 cells were transplanted into SCID mice. […] One mouse was supplied with water containing 0.4% valproic acid (VPA, Sigma) for 10 days, and the other mouse was supplied with water with no additive as control. […] Following the method according to example 4, treatment of tissue slices as well as immunostaining with anti-HLA class I antibody (EMR8-5) and anti-B2M antibody (EMR-B6) were performed.

## CC(/C=C/C(=O)NO)=C\[C@@H](C)C(=O)c1ccc(N(C)C)cc1 [TSA, tricostatin A]
MCF-7 cells [1]
  expression level of intracellular HLA heavy chain and actin proteins: no great difference
  level of intracellular B2M protein: remarkably increased
Class I and II HDAC
  HDAC class selectivity: inhibits class I and II HDAC
HMC-1 cells [2]
  expression level of intracellular HLA heavy chain and actin proteins: no great difference
  level of intracellular B2M protein: remarkably increased
HMC-1 cells [3]; TSA 100 nM, 24 hours
  increase of MHC class I level of the cell surface: about 10 times
MCF-7 cells [4]
  B2M gene detected in anti-acetylated histone H3 immunoprecipitate: B2M gene was detected together with acetylated histones
MCF-7 cells [5]
  increase of MHC class I level of the cell surface: about 10 times

## CCCC(CCC)C(=O)O [VPA, valproic acid]
HMC-1 cells [6]
  B2M gene detected in anti-acetylated histone H3 immunoprecipitate: B2M gene was detected together with acetylated histones
Class I and II HDAC
  HDAC class selectivity: preferably inhibits class I MAC compared with class II HDAC
[7]
  HLA class I level on a cell surface: recovery of expression was observed
HMC-1 cells [3]; VPA 4 mM, 48 hours
  increase of MHC class I level of the cell surface: about 10 times
[8]
  HLA class I level on a cell surface: recovery of expression was observed
[9]
  HLA class I level on a cell surface: recovery of expression was observed
[10]
  HLA class I level on a cell surface: recovery of expression was observed
[11]
  HLA class I level on a cell surface: recovery of expression was observed
[12]
  expression level of B2M in tumor: increased compared to control group
  expression level of HLA class I antigen in tumor: increased compared to control group
